In EP4806898A1, “HETEROARYL DERIVATIVE COMPOUND AND USE THEREOF” (Voronoi Inc., priority 2023, dated 2025):

Tests used:
[1] = biological target: T1, recombinant USP1 protein (Homo sapiens, UniProt O94782, DEL125-138/DEL229-408/DEL608-737); assay: Binding affinity to recombinant USP1 protein by differential scanning fluorimetry; details: compound 100 µM; 0.03 mg/mL USP1 (Δ1-66, Δ125-138, Δ229-408, Δ608-737); Tm with compound minus Tm with DMSO; read-out: ΔTm (°C)
T1 sequence (O94782 with tags, fused parts or gaps DEL125-138/DEL229-408/DEL608-737): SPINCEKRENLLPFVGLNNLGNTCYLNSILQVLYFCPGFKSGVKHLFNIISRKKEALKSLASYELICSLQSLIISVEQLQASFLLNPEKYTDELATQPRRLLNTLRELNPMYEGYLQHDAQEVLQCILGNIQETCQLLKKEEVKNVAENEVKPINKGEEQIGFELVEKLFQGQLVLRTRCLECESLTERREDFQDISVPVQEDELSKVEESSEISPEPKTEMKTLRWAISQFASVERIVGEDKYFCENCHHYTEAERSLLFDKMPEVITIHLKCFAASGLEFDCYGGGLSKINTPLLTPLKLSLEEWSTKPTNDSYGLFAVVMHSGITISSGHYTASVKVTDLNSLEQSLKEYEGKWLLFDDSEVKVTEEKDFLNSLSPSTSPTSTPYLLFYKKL
How it was run: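 USP1 (Δ1-66, Δ125-138, Δ229-408, Δ608-737) at 0.03 mg/mL with dye in 50 mM Tris-HCl pH 8.0, 150 mM NaCl, 2% glycerol, 1 mM DTT; compounds at 100 µM final. Tm read on real-time PCR instrument; ΔTm = Tm with compound minus Tm with DMSO.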

[2] = system: UWB1.289 cells; assay: Cell proliferation inhibitory activity in BRCA1/2-mutant or HRD-positive cells (Cell Titer-Glo); assay type: cell-based; details: UWB1289; UWB1.289 cells, 144 hours after compound treatment, Cell Titer-Glo, 1.5 nM to 10 µM; read-out: GI50 UWB1.289 BRCA1 mut
Description: <Experimental Example 2> Evaluation of Cell Proliferation Inhibitory Activity in BRCA1/2-Mutant or HRD-Positive Cells
To evaluate the inhibitory activity of the compound according to the present invention on the proliferation of BRCA1/2 mutants or homologous recombination deficient (HRD) positive cell lines, the following experiments were performed. UWB1.289 cells were cultured in medium (50% MEBM + 50% RPMI1640), and 1,000 cells were seeded in a well plate (black clear bottom 96-well plate, Corning) 16 to 24 hours prior to compound treatment. The compounds were diluted in dimethyl sulfoxide (3-fold serial dilution starting at 10 µM, for a total of 10 concentrations) and injected at 1 µl per well, resulting a final concentration range of […] to 10 µM. Measurements of live cells were performed by a reaction in a 37 °C and CO2 incubator for 144 hours after compound treatment. The cells were incubated for 10 minutes in an incubator using Cell Titer-Glo luminescent cell-viability reagent (Promega), and luminescence intensity thereof was measured using a reader (SynergyNeo2, Biotek). GI50 values were calculated using the GraphPad Prism version 8.4.3 (GraphPad software Inc., San Diego) program.

Structure (SMILES)	ΔTm at 100 µM [1] [°C]	GI50 [2] [nM]
COc1ncnc(C2CC2)c1-c1ncc2cc(C(=O)N3CCN(C)CC3)n(Cc3ccc(-c4nc(C(F)(F)F)cn4C(C)C)cc3)c2n1 [Example 24, (2-(4-cyclopropyl-6-methoxypyrimid in-5-yl)-7-(4-(1-isopropyl-4-(trifluoromethyl)-1H-imidazol-2-yl)benzyl)-7H-pyrrolo[2,3-d]pyrimidin-6-yl) (4-methylpiperazi n-1-yl)methanone]	> 5	< 100
COc1ncnc(C2CC2)c1-c1ncc2cc(C(=O)N3CCN(C4COC4)CC3)n(Cc3ccc(-c4nc(C(F)(F)F)cn4C(C)C)cc3)c2n1 [Example 25, (2-(4-cyclopropyl-6-methoxypyrimid in-5-yl)-7-(4-(1-isopropyl-4-(trifluoromethyl)-1H-imidazol-2-yl)benzyl)-7H-pyrrolo[2,3-d]pyrimidin-6-yl) (4-(oxetan-3-yl)piperazin-1-yl)methanone]	> 5	< 100
CNCCN(C)C(=O)c1cc2cnc(-c3c(OC)ncnc3C3CC3)nc2n1Cc1ccc(-c2nc(C(F)(F)F)cn2C(C)C)cc1 [Example 26, 2-(4-cyclopropyl-6-methoxypyrimidin-5-yl)-7-(4-(1-isopropyl-4-(trifluoromethyl)-1H-imidazol-2-yl)benzyl)-N-methyl-N-(2-(methylamino)ethyl)-7H-pyrrolo[2,3-d]pyrimidine-6-carboxamide]	> 5	< 100
COc1ncnc(C2CC2)c1-c1ncc2cc(C(=O)Nc3cccc4ccccc34)n(Cc3ccc(-c4nc(C(F)(F)F)cn4C(C)C)cc3)c2n1 [Example 28, 2-(4-cyclopropyl-6-methoxypyrimidin-5-yl)-7-(4-(1-isopropyl-4-(trifluoromethyl)-1H-imidazol-2-yl)benzyl)-N-(naphthalen-1-yl)-7H-pyrrolo[2,3-d]pyrimidine-6-carboxamide]	> 5	< 100
COc1ncnc(C2CC2)c1-c1ncc2cc(C(=O)NCC(C)=O)n(Cc3ccc(-c4nc(C(F)(F)F)cn4C(C)C)cc3)c2n1 [Example 29, 2-(4-cyclopropyl-6-methoxypyrimidin-5-yl)-7-(4-(1-isopropyl-4-(trifluoromethyl)-1H-imidazol-2-yl)benzyl)-N-(2-oxopropyl)-7H-pyrrolo[2,3-d]pyrimidine-6-carboxamide]	> 5	< 100
COc1ncnc(C2CC2)c1-c1ncc2cc(C(=O)Nc3cnn(C)c3)n(Cc3ccc(-c4nc(C(F)(F)F)cn4C(C)C)cc3)c2n1 [Example 30, 2-(4-cyclopropyl-6-methoxypyrimidin-5-yl)-7-(4-(1-isopropyl-4-(trifluoromethyl)-1H-imidazol-2-yl)benzyl)-N-(1-methyl-1H-pyrazol-4-yl)-7H-pyrrolo[2,3-d]pyrimidine-6-carboxamide]	> 5	< 100
COc1ncnc(C2CC2)c1-c1ncc2cc(C(=O)Nc3nccs3)n(Cc3ccc(-c4nc(C(F)(F)F)cn4C(C)C)cc3)c2n1 [Example 31, 2-(4-cyclopropyl-6-methoxypyrimidin-5-yl)-7-(4-(1-isopropyl-4-(trifluoromethyl)-1H-imidazol-2-yl)benzyl)-N-(thiazol-2-yl)-7H-pyrrolo[2,3-d]pyrimidine-6-carboxamide]	> 5	100 to 500
COc1ncnc(C2CC2)c1-c1ncc2cc(C(N)=O)n(Cc3ccc(-c4nc(C(F)(F)F)cn4C(C)C)cc3)c2n1 [Example 32, 2-(4-cyclopropyl-6-methoxypyrimidin-5-yl)-7-(4-(1-isopropyl-4-(trifluoromethyl)-1H-imidazol-2-yl)benzyl)-7H-pyrrolo[2,3-d]pyrimidine-6-carboxamide]	> 5	< 100
COc1ncnc(C2CC2)c1-c1ncc2cc(C(=O)NCCCN(C)C)n(Cc3ccc(-c4nc(C(F)(F)F)cn4C(C)C)cc3)c2n1 [Example 33]	> 5	< 100
COc1ncnc(C2CC2)c1-c1ncc2cc(C(=O)NCCC(F)(F)F)n(Cc3ccc(-c4nc(C(F)(F)F)cn4C(C)C)cc3)c2n1 [Example 34, 2-(4-cyclopropyl-6-methoxypyrimidin-5-yl)-7-(4-(1-isopropyl-4-(trifluoromethyl)-1H-imidazol-2-yl)benzyl)-N-(3,3,3-trifluoropropyl)-7H-pyrrolo[2,3-d]pyrimidine-6-carboxamide]	> 5	100 to 500
COc1ncnc(C2CC2)c1-c1ncc2cc(C(=O)N3CC4(COC4)C3)n(Cc3ccc(-c4nc(C(F)(F)F)cn4C(C)C)cc3)c2n1 [Example 35, (2-(4-cyclopropyl-6-methoxypyrimid in-5-yl)-7-(4-(1-isopropyl-4-(trifluoromethyl)-1H-imidazol-2-yl)benzyl)-7H-pyrrolo[2,3-d]pyrimidin-6-yl) (2-oxa-6-azaspiro[3.3]heptan-6-yl)methanone]	> 5	< 100
COc1ncnc(C2CC2)c1-c1ncc2cc(C(=O)NC3CNC3)n(Cc3ccc(-c4nc(C(F)(F)F)cn4C(C)C)cc3)c2n1 [Example 36, N-(azetidin-3-yl)-2-(4-cyclopropyl-6-methoxypyrimidin-5-yl)-7-(4-(1-isopropyl-4-(trifluoromethyl)-1H-imidazol-2-yl)benzyl)-7H-pyrrolo[2,3-d]pyrimidine-6-carboxamide]	> 5	100 to 500
CCCNC(=O)c1cc2cnc(-c3c(OC)ncnc3C3CC3)nc2n1Cc1ccc(-c2nc(C(F)(F)F)cn2C(C)C)cc1 [Example 37, 2-(4-cyclopropyl-6-methoxypyrimidin-5-yl)-7-(4-(1-isopropyl-4-(trifluoromethyl)-1H-imidazol-2-yl)benzyl)-N-propyl-7H-pyrrolo[2,3-d]pyrimidine-6-carboxamide]	> 5	< 100
COc1ncnc(C2CC2)c1-c1ncc2cc(C(=O)N(C)CCN(C)C)n(Cc3ccc(-c4nc(C(F)(F)F)cn4C(C)C)cc3)c2n1 [Example 38, 2-(4-cyclopropyl-6-methoxypyrimidin-5-yl)-N-(2-(dimethylamino)ethyl)-7-(4-(1-isopropyl-4-(trifluoromethyl)-1H-imidazol-2-yl)benzyl)-N-methyl-7H-pyrrolo [2,3-d]pyrimidine-6-carboxamide]	> 5	< 100
COc1ncnc(C2CC2)c1-c1ncc2cc(C(=O)N3CC[C@@H](N(C)C)C3)n(Cc3ccc(-c4nc(C(F)(F)F)cn4C(C)C)cc3)c2n1 [Example 39, (R)-(2-(4-cyclopropyl-6-methoxypyrimidin-5-yl)-7-(4-(1-isopropyl-4-(trifluoromethyl)-1H-imidazol-2-yl)benzyl)-7H-pyrrolo[2,3-d]pyrimidin-6-yl) (3-(dimethylamino)pyrrolidin-1-yl)methanone]	> 5	100 to 500
COc1ncnc(C2CC2)c1-c1ncc2cc(C(=O)N3CC(F)(F)C3)n(Cc3ccc(-c4nc(C(F)(F)F)cn4C(C)C)cc3)c2n1 [Example 40, (2-(4-cyclopropyl-6-methoxypyrimid in-5-yl)-7-(4-(1-isopropyl-4-(trifluoromethyl)-1H-imidazol-2-yl)benzyl)-7H-pyrrolo[2,3-d]pyrimidin-6-yl) (3,3-difluoroazetid in-1-yl)methanone]	> 5	100 to 500
COc1ncnc(C2CC2)c1-c1ncc2cc(C(=O)NC3CCNC3)n(Cc3ccc(-c4nc(C(F)(F)F)cn4C(C)C)cc3)c2n1 (stereo not drawn) [Example 41, 2-(4-cyclopropyl-6-methoxypyrimidin-5-yl)-7-(4-(1-isopropyl-4-(trifluoromethyl)-1H-imidazol-2-yl)benzyl)-N-(pyrrolidin-3-yl)-7H-pyrrolo[2,3-d]pyrimidine-6-carboxamide]	> 5	< 100
CCN(CC)C(=O)c1cc2cnc(-c3c(OC)ncnc3C3CC3)nc2n1Cc1ccc(-c2nc(C(F)(F)F)cn2C(C)C)cc1 [Example 42, 2-(4-cyclopropyl-6-methoxypyrimidin-5-yl)-N,N-diethyl-7-(4-(1-isopropyl-4-(trifluoromethyl)-1H-imidazol-2-yl)benzyl)-7H-pyrrolo[2,3-d]pyrimidine-6-carboxamide]	> 5	100 to 500
